Experimental data from patent US8901118B2, “Compounds and methods for kinase modulation, and indications therefor” (Plexxikon Inc., priority 2010, dated 2014).
pIC50: −log10 of the molar value.

How the values were obtained:
[1] = molecular target: T1, BCR-FMS BaF3 cells (Homo sapiens, UniProt P07333); assay: BaF3 BCR-FMS cell proliferation assay (ATPlite); format: cell-based; settings: read-out: Inhibition of Cell Proliferation IC50, BCR/BaF3 Fms
T1 construct: fused on or other part: P11274 (Breakpoint cluster region protein)
T1 sequence (P07333 582-910): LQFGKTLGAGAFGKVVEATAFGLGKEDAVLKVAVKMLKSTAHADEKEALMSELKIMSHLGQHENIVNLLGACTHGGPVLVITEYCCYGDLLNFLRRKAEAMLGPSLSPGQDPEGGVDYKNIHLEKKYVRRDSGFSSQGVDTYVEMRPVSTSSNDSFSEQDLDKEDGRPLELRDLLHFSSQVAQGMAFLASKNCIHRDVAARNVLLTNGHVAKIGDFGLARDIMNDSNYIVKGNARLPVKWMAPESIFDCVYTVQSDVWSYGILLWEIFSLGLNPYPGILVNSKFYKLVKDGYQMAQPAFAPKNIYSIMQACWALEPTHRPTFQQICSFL
Method in brief: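 BaF3 lines were seeded at 10,000 cells/well in growth medium with 1 mg/mL G418 but no IL-3, and MV-4-11 cells at 25,000 cells/well; plates were left overnight at 37 °C. Compounds were added as an 8-point 1:3 series with a top concentration of 10 μM and incubated 3 days. IC50 was taken from ATPlite luminescence.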

[2] = molecular target: c-Kit kinase (Homo sapiens, UniProt P10721); assay: c-Kit kinase biochemical activity assay (AlphaScreen, biotin-(E4Y)10 phosphorylation); settings: 100 μM ATP; read-out: Biochemical Inhibition IC50 Kit
Chain of c-Kit kinase (P10721 26-976): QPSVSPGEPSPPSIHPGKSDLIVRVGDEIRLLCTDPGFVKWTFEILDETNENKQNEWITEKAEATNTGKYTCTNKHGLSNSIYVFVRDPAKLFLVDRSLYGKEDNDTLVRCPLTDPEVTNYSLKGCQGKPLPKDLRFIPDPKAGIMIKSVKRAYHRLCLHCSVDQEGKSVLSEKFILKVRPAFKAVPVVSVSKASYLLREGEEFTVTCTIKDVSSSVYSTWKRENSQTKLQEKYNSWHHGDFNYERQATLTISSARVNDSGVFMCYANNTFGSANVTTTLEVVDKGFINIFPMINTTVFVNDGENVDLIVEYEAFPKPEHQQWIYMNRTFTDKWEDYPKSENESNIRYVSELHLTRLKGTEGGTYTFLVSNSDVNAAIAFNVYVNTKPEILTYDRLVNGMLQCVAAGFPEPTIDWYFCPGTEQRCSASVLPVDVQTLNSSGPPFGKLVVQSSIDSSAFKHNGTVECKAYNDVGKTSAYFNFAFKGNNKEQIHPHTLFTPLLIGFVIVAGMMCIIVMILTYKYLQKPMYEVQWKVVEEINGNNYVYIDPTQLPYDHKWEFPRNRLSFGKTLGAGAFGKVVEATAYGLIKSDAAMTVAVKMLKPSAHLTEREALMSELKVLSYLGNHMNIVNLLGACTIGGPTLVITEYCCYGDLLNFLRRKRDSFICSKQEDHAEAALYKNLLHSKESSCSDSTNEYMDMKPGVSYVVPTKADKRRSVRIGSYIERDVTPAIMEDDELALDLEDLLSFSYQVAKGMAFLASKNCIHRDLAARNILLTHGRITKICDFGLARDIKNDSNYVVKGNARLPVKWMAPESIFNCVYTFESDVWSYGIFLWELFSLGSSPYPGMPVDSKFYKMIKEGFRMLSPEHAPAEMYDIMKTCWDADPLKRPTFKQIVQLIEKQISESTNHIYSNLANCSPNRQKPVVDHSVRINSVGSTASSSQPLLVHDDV
Method in brief: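 Phosphorylation of 30 nM biotin-(E4Y)10 by c-Kit (0.75 ng per reaction) with 100 µM ATP in HEPES pH 7.5 buffer with Mg2+/Mn2+, 5% DMSO, 1 h at room temperature; 8-point 1:2 compound dilutions. AlphaScreen detection with streptavidin donor and PY20 acceptor beads after EDTA stop. IC50 from signal versus concentration.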

SMILES | pIC50 [1] | pIC50 [2]
CNc1ncnc2[nH]cc(C(=O)c3ccc(Nc4ccc(C5CC5)nc4)nc3F)c12 [Compound P-4094, [6-[(6-cyclopropyl-3-pyridyl)amino]-2-fluoro-3-pyridyl]-[4-(methylamino)-7H-pyrrolo[2,3-d]pyrimidin-5-yl]methanone] | > 7.00 | > 8.00
CCc1ccc(Nc2ccc(C(=O)c3c[nH]c4ncnc(N[C@@H](C)c5ccc(F)cc5)c34)c(F)n2)cn1 [Compound P-4097, [6-[(6-ethyl-3-pyridyl)amino]-2-fluoro-3-pyridyl]-[4-[[(1S)-1-(4-fluorophenyl)ethyl]amino]-7H-pyrrolo[2,3-d]pyrimidin-5-yl]methanone] | > 7.00 | > 6.00
CCc1ccc(Nc2ccc(C(=O)c3c[nH]c4ncnc(NCCCOC)c34)c(F)n2)cn1 [Compound P-4098, [6-[(6-ethyl-3-pyridyl)amino]-2-fluoro-3-pyridyl]-[4-(3-methoxypropylamino)-7H-pyrrolo[2,3-d]pyrimidin-5-yl]methanone] | > 7.00 | > 7.00
CCCCNc1ncnc2[nH]cc(C(=O)c3ccc(Nc4ccc(CC)nc4)nc3F)c12 [Compound P-4100, [4-(butylamino)-7H-pyrrolo[2,3-d]pyrimidin-5-yl]-[6-[(6-ethyl-3-pyridyl)amino]-2-fluoro-3-pyridyl]methanone] | > 7.00 | > 7.00
COc1cncc(Nc2ccc(C(=O)c3c[nH]c4ncnc(NCC(F)(F)F)c34)c(F)n2)c1 [Compound P-4103, [2-fluoro-6-[(5-methoxy-3-pyridyl)amino]-3-pyridyl]-[4-(2,2,2-trifluoroethylamino)-7H-pyrrolo[2,3-d]pyrimidin-5-yl]methanone] | > 7.00 | > 6.00
COc1cncc(Nc2ccc(C(=O)c3c[nH]c4ncnc(NC5CCCCC5)c34)c(F)n2)c1 [Compound P-4104, [4-(cyclohexylamino)-7H-pyrrolo[2,3-d]pyrimidin-5-yl]-[2-fluoro-6-[(5-methoxy-3-pyridyl)amino]-3-pyridyl]methanone] | > 7.00 | > 6.00
CCCNc1ncnc2[nH]cc(C(=O)c3ccc(Nc4cncc(OC)c4)nc3F)c12 [Compound P-4105, [2-fluoro-6-[(5-methoxy-3-pyridyl)amino]-3-pyridyl]-[4-(propylamino)-7H-pyrrolo[2,3-d]pyrimidin-5-yl]methanone] | > 7.00 | < 6.00
COc1cncc(Nc2ccc(C(=O)c3c[nH]c4ncnc(NC(C)C)c34)c(F)n2)c1 [Compound P-4106, [2-fluoro-6-[(5-methoxy-3-pyridyl)amino]-3-pyridyl]-[4-(isopropylamino)-7H-pyrrolo[2,3-d]pyrimidin-5-yl]methanone] | > 7.00 | > 6.00
COc1cncc(Nc2ccc(C(=O)c3c[nH]c4ncnc(NC5CC5)c34)c(F)n2)c1 [Compound P-4107, [4-(cyclopropylamino)-7H-pyrrolo[2,3-d]pyrimidin-5-yl]-[2-fluoro-6-[(5-methoxy-3-pyridyl)amino]-3-pyridyl]methanone] | > 7.00 | > 7.00
CNc1ncnc2[nH]cc(C(=O)c3ccc(Nc4cncc(OC)c4)nc3F)c12 [Compound P-4108, [2-fluoro-6-[(5-methoxy-3-pyridyl)amino]-3-pyridyl]-[4-(methylamino)-7H-pyrrolo[2,3-d]pyrimidin-5-yl]methanone] | > 7.00 | > 6.00
CC(C)Nc1ncnc2[nH]cc(C(=O)c3ccc(NC4CCCCC4)nc3Cl)c12 [Compound P-4109, [2-chloro-6-(cyclohexylamino)-3-pyridyl]-[4-(isopropylamino)-7H-pyrrolo[2,3-d]pyrimidin-5-yl]methanone] | > 7.00 | > 6.00
CNc1ncnc2[nH]cc(C(=O)c3ccc(NC4CCCCC4)nc3Cl)c12 [Compound P-4110, [2-chloro-6-(cyclohexylamino)-3-pyridyl]-[4-(methylamino)-7H-pyrrolo[2,3-d]pyrimidin-5-yl]methanone] | > 7.00 | > 6.00
Cc1ccc(Nc2ccc(C(=O)c3c[nH]c4ncnc(NC5CCCCC5)c34)c(F)n2)cn1 [Compound P-4111, [4-(cyclohexylamino)-7H-pyrrolo[2,3-d]pyrimidin-5-yl]-[2-fluoro-6-[(6-methyl-3-pyridyl)amino]-3-pyridyl]methanone] | > 7.00 | > 6.00
Cc1ccc(Nc2ccc(C(=O)c3c[nH]c4ncnc(NCC(F)(F)F)c34)c(F)n2)cn1 [Compound P-4112, [2-fluoro-6-[(6-methyl-3-pyridyl)amino]-3-pyridyl]-[4-(2,2,2-trifluoroethylamino)-7H-pyrrolo[2,3-d]pyrimidin-5-yl]methanone] | > 7.00 | > 6.00
CCc1ccc(Nc2ccc(C(=O)c3c[nH]c4ncnc(NCC5CC5)c34)c(F)n2)cn1 [Compound P-4118, [4-(cyclopropylmethylamino)-7H-pyrrolo[2,3-d]pyrimidin-5-yl]-[6-[(6-ethyl-3-pyridyl)amino]-2-fluoro-3-pyridyl]methanone] | > 8.00 | > 7.00
CCc1ccc(Nc2ccc(C(=O)c3c[nH]c4ncnc(NCCOC)c34)c(F)n2)cn1 [Compound P-4119, [6-[(6-ethyl-3-pyridyl)amino]-2-fluoro-3-pyridyl]-[4-(2-methoxyethylamino)-7H-pyrrolo[2,3-d]pyrimidin-5-yl]methanone] | > 8.00 | > 8.00

Second part, the compound after the results:

pIC50 [1] | pIC50 [2] | SMILES
> 8.00 | > 7.00 | O=C(c1ccc(Nc2ccc(C3CC3)nc2)nc1F)c1c[nH]c2ncnc(NC3CC3)c12 [Compound P-4093, [4-(cyclopropylamino)-7H-pyrrolo[2,3-d]pyrimidin-5-yl]-[6-[(6-cyclopropyl-3-pyridyl)amino]-2-fluoro-3-pyridyl]methanone]
> 8.00 | > 7.00 | CCc1ccc(Nc2ccc(C(=O)c3c[nH]c4ncnc(NC5CCC5)c34)c(F)n2)cn1 [Compound P-4095, [4-(cyclobutylamino)-7H-pyrrolo[2,3-d]pyrimidin-5-yl]-[6-[(6-ethyl-3-pyridyl)amino]-2-fluoro-3-pyridyl]methanone]
> 8.00 | > 6.00 | CCc1ccc(Nc2ccc(C(=O)c3c[nH]c4ncnc(NC5CCC(F)(F)CC5)c34)c(F)n2)cn1 [Compound P-4096, [4-[(4,4-difluorocyclohexyl)amino]-7H-pyrrolo[2,3-d]pyrimidin-5-yl]-[6-[(6-ethyl-3-pyridyl)amino]-2-fluoro-3-pyridyl]methanone]
> 8.00 | > 7.00 | CCc1ccc(Nc2ccc(C(=O)c3c[nH]c4ncnc(NC5CCCC5)c34)c(F)n2)cn1 [Compound P-4099, [4-(cyclopentylamino)-7H-pyrrolo[2,3-d]pyrimidin-5-yl]-[6-[(6-ethyl-3-pyridyl)amino]-2-fluoro-3-pyridyl]methanone]
> 8.00 | > 6.00 | CC(C)Nc1ncnc2[nH]cc(C(=O)c3ccc(NC4CCCCC4)nc3F)c12 [Compound P-4101, [6-(cyclohexylamino)-2-fluoro-3-pyridyl]-[4-(isopropylamino)-7H-pyrrolo[2,3-d]pyrimidin-5-yl]methanone]
> 8.00 | > 6.00 | CNc1ncnc2[nH]cc(C(=O)c3ccc(NC4CCCCC4)nc3F)c12 [Compound P-4102, [6-(cyclohexylamino)-2-fluoro-3-pyridyl]-[4-(methylamino)-7H-pyrrolo[2,3-d]pyrimidin-5-yl]methanone]
> 8.00 | > 7.00 | Cc1ccc(Nc2ccc(C(=O)c3c[nH]c4ncnc(NCC5CC5)c34)c(F)n2)cn1 [Compound P-4113, [4-(cyclopropylmethylamino)-7H-pyrrolo[2,3-d]pyrimidin-5-yl]-[2-fluoro-6-[(6-methyl-3-pyridyl)amino]-3-pyridyl]methanone]
> 8.00 | > 7.00 | CCCNc1ncnc2[nH]cc(C(=O)c3ccc(Nc4ccc(C)nc4)nc3F)c12 [Compound P-4114, [2-fluoro-6-[(6-methyl-3-pyridyl)amino]-3-pyridyl]-[4-(propylamino)-7H-pyrrolo[2,3-d]pyrimidin-5-yl]methanone]
> 8.00 | > 7.00 | CNc1ncnc2[nH]cc(C(=O)c3ccc(Nc4ccc(C)nc4)nc3F)c12 [Compound P-4115, [2-fluoro-6-[(6-methyl-3-pyridyl)amino]-3-pyridyl]-[4-(methylamino)-7H-pyrrolo[2,3-d]pyrimidin-5-yl]methanone]
> 8.00 | > 7.00 | CCc1ccc(Nc2ccc(C(=O)c3c[nH]c4ncnc(NC5CCOCC5)c34)c(F)n2)cn1 [Compound P-4116, [6-[(6-ethyl-3-pyridyl)amino]-2-fluoro-3-pyridyl]-[4-(tetrahydropyran-4-ylamino)-7H-pyrrolo[2,3-d]pyrimidin-5-yl]methanone]
> 8.00 | > 7.00 | CCc1ccc(Nc2ccc(C(=O)c3c[nH]c4ncnc(NC(C)C)c34)c(F)n2)cn1 [Compound P-4117, [6-[(6-ethyl-3-pyridyl)amino]-2-fluoro-3-pyridyl]-[4-(isopropylamino)-7H-pyrrolo[2,3-d]pyrimidin-5-yl]methanone]
